Results from ChEMBL document CHEMBL1201862, “PubChem BioAssay data set” (2004).
Active and inactive are the calls of the source.

Key:
[1] = target: T1, Hexokinase (Trypanosoma brucei, UniProt Q38C41); assay: Confirmation assay for inhibitors of Trypanosoma brucei hexokinase 1-Analogue-first series. [Related pubchem assays (depositor defined):AID1430, AID1632, AID2516, AID2560, AID2579, AID2600, AID449725, AID492951]; assay type: functional
T1 sequence (Q38C41 whole entry): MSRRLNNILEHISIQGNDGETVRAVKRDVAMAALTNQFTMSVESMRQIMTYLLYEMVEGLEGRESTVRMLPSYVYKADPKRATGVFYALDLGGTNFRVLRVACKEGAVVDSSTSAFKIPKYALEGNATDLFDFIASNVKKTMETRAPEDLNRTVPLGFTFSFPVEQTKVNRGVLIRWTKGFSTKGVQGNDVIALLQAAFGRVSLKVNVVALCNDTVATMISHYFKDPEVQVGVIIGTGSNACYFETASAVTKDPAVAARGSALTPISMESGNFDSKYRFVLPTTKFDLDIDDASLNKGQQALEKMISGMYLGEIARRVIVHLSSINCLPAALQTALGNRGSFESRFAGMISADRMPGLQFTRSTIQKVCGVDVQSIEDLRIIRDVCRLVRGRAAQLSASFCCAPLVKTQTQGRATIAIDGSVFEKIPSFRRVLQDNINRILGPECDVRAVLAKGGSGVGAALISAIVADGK

[2] = target: Melanin-concentrating hormone receptor 1 (Homo sapiens, UniProt Q99705); assay: Late-stage fluorescence-based counterscreen for antagonists of the G-protein coupled receptor 7 (GPR7): cell-based dose response assay to identify antagonists of the melanin-concentrating hormone receptor 1 (MCHR1). [Related pubchem assays (depositor defined):AID1861, AID1880, AID1952, AID2148, AID2251, AID2257, AID485339]; assay type: functional;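 further: stimulated with 30 nM MCH peptide agonist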
[3] = target: Troponin, cardiac muscle (Homo sapiens, UniProt P19429+P45379+P63316); assay: Fluorescence-based biochemical high throughput dose response assay for activators of the calcium sensitivity of cardiac Regulated Thin Filaments (RTF). [Related pubchem assays (depositor defined):AID493008, AID493018, AID504382, AID504383]; assay type: protein-complex assay
[4] = target: G-protein coupled receptor 55 (Homo sapiens, UniProt Q9Y2T6); assay: GPR55 antagonists blocking LPI-driven arrestin recruitment, primary screen, imaging, U2OS, beta-arrestin-GFP, LPI agonist (AID 2013); assay type: functional;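 further: antagonist potency measured as reduced agonist-driven arrestin aggregation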
[5] = target: T2, High affinity choline transporter 1 (Homo sapiens, UniProt Q9GZV3); assay: CHT inhibitors, dose response, cell-based, 5-point CRC, membrane potential dye (AID 504840); assay type: functional
T2 sequence (Q9GZV3 whole entry): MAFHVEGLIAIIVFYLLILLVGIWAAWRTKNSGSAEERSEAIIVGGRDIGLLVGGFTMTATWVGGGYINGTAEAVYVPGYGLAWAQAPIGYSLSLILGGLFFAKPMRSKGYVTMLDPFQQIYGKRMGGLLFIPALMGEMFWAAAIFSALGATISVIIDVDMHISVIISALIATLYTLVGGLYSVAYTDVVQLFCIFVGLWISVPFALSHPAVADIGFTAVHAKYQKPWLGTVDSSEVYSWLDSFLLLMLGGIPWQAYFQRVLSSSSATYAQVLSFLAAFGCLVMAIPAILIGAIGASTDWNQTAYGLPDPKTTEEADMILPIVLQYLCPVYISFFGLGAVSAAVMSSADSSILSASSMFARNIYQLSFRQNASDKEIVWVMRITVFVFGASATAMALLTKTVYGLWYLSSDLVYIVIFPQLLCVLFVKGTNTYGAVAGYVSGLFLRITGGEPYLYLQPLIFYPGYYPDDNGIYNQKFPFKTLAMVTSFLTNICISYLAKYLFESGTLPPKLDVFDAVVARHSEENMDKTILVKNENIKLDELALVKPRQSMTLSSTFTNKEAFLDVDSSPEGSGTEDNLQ

[6] = target: T3, E3 ubiquitin-protein ligase XIAP (Homo sapiens, UniProt P98170); assay: XIAP antagonists, biochemical, IAP family, fluorescence polarization (AID 1018); assay type: functional
[7] = target: T3, E3 ubiquitin-protein ligase XIAP; assay: Counter Screen using XIAP-Bir3 for Chemical Antagonists of Bir1/2 domains of IAP-family anti-apoptotic proteins. [Related pubchem assays (depositor defined):AID1018, AID1449, AID1514, AID1638, AID1749, AID1750, AID488957, AID488963]

T3 sequence (P98170 whole entry): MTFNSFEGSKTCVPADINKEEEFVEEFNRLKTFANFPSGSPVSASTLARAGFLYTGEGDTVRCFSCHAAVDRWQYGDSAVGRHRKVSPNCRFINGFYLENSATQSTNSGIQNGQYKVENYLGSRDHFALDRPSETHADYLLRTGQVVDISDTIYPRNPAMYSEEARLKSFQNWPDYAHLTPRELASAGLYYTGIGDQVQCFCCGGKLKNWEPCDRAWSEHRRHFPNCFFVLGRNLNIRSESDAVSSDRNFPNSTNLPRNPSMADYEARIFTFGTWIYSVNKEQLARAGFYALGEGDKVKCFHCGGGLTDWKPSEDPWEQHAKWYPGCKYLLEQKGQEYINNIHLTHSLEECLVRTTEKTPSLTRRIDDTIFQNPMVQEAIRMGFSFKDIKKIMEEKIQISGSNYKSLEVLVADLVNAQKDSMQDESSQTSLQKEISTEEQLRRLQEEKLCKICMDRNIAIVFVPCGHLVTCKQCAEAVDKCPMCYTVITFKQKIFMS
Sequence of G-protein coupled receptor 55 (Q9Y2T6 whole entry): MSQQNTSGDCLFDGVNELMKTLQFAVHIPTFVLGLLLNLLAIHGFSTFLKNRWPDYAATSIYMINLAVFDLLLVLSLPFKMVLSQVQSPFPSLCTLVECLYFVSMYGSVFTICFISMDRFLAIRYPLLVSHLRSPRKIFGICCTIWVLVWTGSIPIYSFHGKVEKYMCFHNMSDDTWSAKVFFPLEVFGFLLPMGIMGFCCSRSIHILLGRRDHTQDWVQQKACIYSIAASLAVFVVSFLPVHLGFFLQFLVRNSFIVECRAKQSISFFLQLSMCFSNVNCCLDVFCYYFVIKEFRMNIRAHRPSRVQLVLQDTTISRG
Sequence of Melanin-concentrating hormone receptor 1 (Q99705 whole entry): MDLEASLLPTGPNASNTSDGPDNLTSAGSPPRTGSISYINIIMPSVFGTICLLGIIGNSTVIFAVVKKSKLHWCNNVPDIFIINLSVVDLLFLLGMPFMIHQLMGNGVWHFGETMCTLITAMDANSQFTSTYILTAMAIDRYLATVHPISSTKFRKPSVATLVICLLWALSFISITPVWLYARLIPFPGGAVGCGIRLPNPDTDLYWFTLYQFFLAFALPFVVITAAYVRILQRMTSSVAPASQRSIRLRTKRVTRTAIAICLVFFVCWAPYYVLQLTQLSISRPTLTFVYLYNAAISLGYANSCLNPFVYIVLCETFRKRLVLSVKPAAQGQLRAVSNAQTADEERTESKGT

In the case of `O=C(Nc1cc(Cl)ccc1C(=O)O)c1ccc(-c2ccccc2)cc1`, the IC50 [1] is reported as 22.3 µM (active).
With `CC(C)c1ccc(-n2ncc(Cl)c(Oc3ccc(OC(F)(F)F)cc3)c2=O)cc1` the IC50 [2] was 12 µM (inactive).
With `O=C1c2ccsc2SCCN1Cc1ccc(F)cc1` the EC50 [3] was > 71.5 µM (inactive).
In the case of `CCc1nnc(NS(=O)(=O)c2ccc(NC(=O)/C=C/c3ccccc3Cl)cc2)s1`, the IC50 [4] is reported as 1.99 µM (active) and the IC50 [5] is reported as 13.8 µM (active).
In the case of `Cc1cc(C)c2nc(NC(=O)C3CCCO3)sc2c1` (stereo not drawn), the EC50 [3] is reported as > 71.5 µM (inactive).
For `O=C(O)CCN1CCc2ccccc21`, the IC50 [6] was > 100 µM (not active) and the IC50 [7] was > 100 µM (inactive).
`COc1nc(NS(=O)(=O)c2ccc(C)cc2)nc(C)c1Cl` was tested, and the IC50 [6] was > 100 µM (not active) and the IC50 [7] was > 100 µM (inactive).
For `O=C(O)CCN(Cc1ccccc1)S(=O)(=O)c1ccccc1Cl`, the IC50 [6] was > 100 µM (not active) and the IC50 [7] was > 100 µM (inactive).
For `O=c1c(O)c(-c2ccc(O)c(O)c2)oc2cc(O)cc(O)c12` [QUERCETIN], the IC50 [1] was 22.4 µM (active).
